From the NIST ThermoML archive (doi:10.1007/s10765-010-0885-7)

Settings: Gas, Spherical cavity resonance method

C=C(F)C(F)(F)F [2,3,3,3-tetrafluoro-1-propene]
Settings | speed of sound [m/s]
278.15 K, 25.44 kPa | 148.09
278.15 K, 50.62 kPa | 147.25
278.15 K, 75.68 kPa | 146.39
278.15 K, 101 kPa | 145.51
278.15 K, 201.3 kPa | 141.89
278.15 K, 300.48 kPa | 138.02
293.15 K, 25.29 kPa | 151.93
293.15 K, 50.99 kPa | 151.19
293.15 K, 75.57 kPa | 150.47
293.15 K, 101.23 kPa | 149.72
293.15 K, 201.08 kPa | 146.67
293.15 K, 292.42 kPa | 143.72
293.15 K, 401.24 kPa | 139.99
308.15 K, 25.26 kPa | 155.68
308.15 K, 50.39 kPa | 155.05
308.15 K, 75.5 kPa | 154.42
308.15 K, 100.64 kPa | 153.79
308.15 K, 200.87 kPa | 151.18
308.15 K, 300.85 kPa | 148.47
308.15 K, 398.92 kPa | 145.68
323.15 K, 25.34 kPa | 159.31
323.15 K, 50.23 kPa | 158.76
323.15 K, 75.47 kPa | 158.2
323.15 K, 100.59 kPa | 157.64
323.15 K, 200.87 kPa | 155.39
323.15 K, 300.93 kPa | 153.07
323.15 K, 401.34 kPa | 150.66
338.15 K, 25.37 kPa | 162.84
338.15 K, 50.45 kPa | 162.36
338.15 K, 75.5 kPa | 161.87
338.15 K, 100.77 kPa | 161.37
338.15 K, 200.63 kPa | 159.42
338.15 K, 301.18 kPa | 157.41
338.15 K, 407.01 kPa | 155.23
353.15 K, 25.67 kPa | 166.32
353.15 K, 50.67 kPa | 165.86
353.15 K, 75.38 kPa | 165.44
353.15 K, 100.55 kPa | 165.01
353.15 K, 200.64 kPa | 163.29
353.15 K, 299.53 kPa | 161.57
353.15 K, 401.3 kPa | 159.76
